In patent US20080004253A1, “Thiazolopyrimidine modulators of TRPV1” (priority 2006, published 2008):

Experiments:
[1] = biological target: T1, human TRPV1 (Homo sapiens, UniProt Q8NER1); test: Functional assay: block of capsaicin-induced Ca2+ influx, human assay (hTRPV1/HEK293, FLIPR); format: cell-based; conditions: hTRPV1/HEK293 cells, 150 nM capsaicin challenge, Fluo-3 fluorescence; mean; > value = solubility limit in assay medium
T1 construct: expressed in transfected cells; host or cells: HEK293 (hTRPV1/HEK293), zeocin selection
T1 sequence (Q8NER1 whole entry): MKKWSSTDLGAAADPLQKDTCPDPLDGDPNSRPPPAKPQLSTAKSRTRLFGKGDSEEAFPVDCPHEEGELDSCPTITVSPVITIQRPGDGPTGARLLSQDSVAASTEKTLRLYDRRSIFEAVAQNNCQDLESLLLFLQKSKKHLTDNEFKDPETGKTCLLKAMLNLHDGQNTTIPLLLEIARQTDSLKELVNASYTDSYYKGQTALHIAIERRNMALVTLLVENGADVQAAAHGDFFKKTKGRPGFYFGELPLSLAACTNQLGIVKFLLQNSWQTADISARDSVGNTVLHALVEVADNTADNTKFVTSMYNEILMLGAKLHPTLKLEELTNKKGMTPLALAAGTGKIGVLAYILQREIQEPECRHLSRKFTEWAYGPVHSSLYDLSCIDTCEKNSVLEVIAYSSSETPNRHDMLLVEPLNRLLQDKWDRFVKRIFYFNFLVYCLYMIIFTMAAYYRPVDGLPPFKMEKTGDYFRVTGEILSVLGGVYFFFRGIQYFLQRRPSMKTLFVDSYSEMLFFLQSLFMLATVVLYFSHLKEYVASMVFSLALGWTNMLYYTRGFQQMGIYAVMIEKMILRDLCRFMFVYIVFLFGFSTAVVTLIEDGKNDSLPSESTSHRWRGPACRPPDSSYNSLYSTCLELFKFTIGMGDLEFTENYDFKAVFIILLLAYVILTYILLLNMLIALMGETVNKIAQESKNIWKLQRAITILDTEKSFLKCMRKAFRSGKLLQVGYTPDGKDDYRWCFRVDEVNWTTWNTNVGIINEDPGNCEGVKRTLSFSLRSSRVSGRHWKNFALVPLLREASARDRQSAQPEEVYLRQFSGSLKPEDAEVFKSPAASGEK
Description: (§1) Functional assay: block of capsaicin-induced Ca^2+ influx
(§2) HEK293 cells were transfected with human TRPV1 cloned in pcDNA3.1zeo(+) using the Effectene non-liposomal lipid based transfection kit (Qiagen) (hTRPV1/HEK293). hTRPV1/HEK293 cells were routinely grown as monolayers under selection in zeocin (200 μg/mL; Invitrogen) in Dulbecco's Modified Eagle Medium (DMEM, Gibco BRL) supplemented with 10% fetal bovine serum, and penicillin/streptomycin (50 units/mL) in 5% CO2 at 37° C. Cells were passaged frequently, every 3-5 days, to avoid overgrowth, depletion of essential medium components, or acidic medium exposure. Cells were passaged using a brief wash in 0.05% trypsin with 1 mM EDTA, followed by dissociation in divalent-free phosphate-buffered saline (Hyclone #SH30028.02). […] The assay buffer was composed of 130 mM NaCl, 2 mM KCl, 2 mM MgCl2, 10 mM HEPES, 5 mM glucose, and either 2 mM or 20 μM CaCl2. On the day of the experiment, the culture medium was replaced with 2 mM calcium assay buffer using an automated plate washer (ELx405; Biotek, VT). […] After loading the cells, the dye solution was replaced with 50 μL/well of 20 μM calcium assay buffer using the ELx405 plate washer. Test compounds (50 μL/well) were added to the plate and incubated for 30 min. […] The IC50 values were determined. […] The contents of the wells were mixed 3 times (40 μL mix volume) immediately after the additions were made. Concentration-dependence of block was determined by exposing each well of cells in duplicate rows of a 96-well plate to a serial dilution of test compound. The concentration series usually started at 10 μM with a three-fold serial decrement in concentration. The magnitude of the capsaicin response was determined by measuring the change in fluo3 fluorescence before and 100 seconds after the addition of the agonist. Data were analyzed using a non-linear regression program (Origin; OriginLab, MA).
(§3) IC50 values shown are the average (mean) of the results obtained. […] Compounds were tested in either the free base or trifluoroacetic acid salt form.

[2] = biological target: T2, rat TRPV1 (Rattus norvegicus, UniProt O35433); test: Functional assay: block of capsaicin-induced Ca2+ influx, rat assay (rTRPV1/HEK293, FLIPR); format: cell-based; conditions: rTRPV1/HEK293 cells, capsaicin challenge, Fluo-3 fluorescence; mean; > value = solubility limit in assay medium
T2 construct: expressed in transfected cells; host or cells: HEK293 (rTRPV1/HEK293), geneticin selection
T2 sequence (O35433 whole entry): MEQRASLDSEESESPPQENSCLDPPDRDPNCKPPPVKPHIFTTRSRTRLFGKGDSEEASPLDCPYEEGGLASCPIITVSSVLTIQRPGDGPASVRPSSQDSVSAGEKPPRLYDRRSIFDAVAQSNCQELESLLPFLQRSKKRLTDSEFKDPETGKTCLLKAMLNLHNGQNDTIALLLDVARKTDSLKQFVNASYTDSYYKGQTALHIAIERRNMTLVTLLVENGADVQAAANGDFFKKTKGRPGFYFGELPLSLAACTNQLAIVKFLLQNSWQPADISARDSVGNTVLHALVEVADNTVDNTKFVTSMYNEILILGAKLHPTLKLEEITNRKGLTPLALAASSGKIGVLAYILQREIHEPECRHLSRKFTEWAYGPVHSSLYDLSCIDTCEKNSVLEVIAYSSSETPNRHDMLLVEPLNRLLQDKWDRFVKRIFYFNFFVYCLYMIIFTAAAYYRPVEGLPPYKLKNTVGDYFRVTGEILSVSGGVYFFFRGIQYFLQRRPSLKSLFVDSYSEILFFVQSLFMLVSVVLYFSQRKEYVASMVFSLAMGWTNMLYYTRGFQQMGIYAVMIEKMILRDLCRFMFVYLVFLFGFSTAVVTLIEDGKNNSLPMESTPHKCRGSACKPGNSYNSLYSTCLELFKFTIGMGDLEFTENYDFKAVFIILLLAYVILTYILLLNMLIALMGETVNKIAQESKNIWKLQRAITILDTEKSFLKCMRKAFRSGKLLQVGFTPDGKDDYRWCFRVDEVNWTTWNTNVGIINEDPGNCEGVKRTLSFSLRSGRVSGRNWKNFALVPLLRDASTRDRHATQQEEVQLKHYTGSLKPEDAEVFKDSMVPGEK
Description: as §1, §2
This assay was performed similarly to the human assay described above, but using HEK293 cells transfected with rat TRPV1 (rTRPV1/HEK293).
as §3

SMILES	IC50 [1]	IC50 [2]
CN(C)c1nc(Nc2ccc(C(F)(F)F)cc2)c2nc(Nc3c(Cl)cccc3Cl)sc2n1 [Example 56, N^2-(2,6-Dichloro-phenyl)-N^5,N^5-dimethyl-N^7-(4-trifluoromethyl-phenyl)-thiazolo[5,4-d]pyrimidine-2,5,7-triamine]	32 nM	44 nM
FC(F)(F)c1ccc(Nc2ncnc3sc(Nc4c(Cl)cccc4Cl)nc23)cn1 [Example 2, N^2-(2,6-Dichloro-phenyl)-N^7-(6-trifluoromethyl-pyridin-3-yl)-thiazolo[5,4-d]pyrimidine-2,7-diamine]	14 nM	4 nM
FC(F)(F)c1ccc(Nc2ncnc3sc(Nc4c(Cl)cccc4Cl)nc23)cc1Cl [Example 4, N^7-(3-Chloro-4-trifluoromethyl-phenyl)-N^2-(2,6-dichloro-phenyl)-thiazolo[5,4-d]pyrimidine-2,7-diamine]	15 nM	8 nM
Cc1cccc(C)c1Nc1nc2c(Nc3ccc(S(=O)(=O)N4CCCC4)cc3)ncnc2s1 [Example 104, N^2-(2,6-Dimethyl-phenyl)-N^7-[4-(pyrrolidine-1-sulfonyl)-phenyl]-thiazolo[5,4-d]pyrimidine-2,7-diamine]	22 nM	7 nM
Cc1nc(Nc2ccc(S(=O)(=O)N(C)C)cc2)c2nc(Nc3ncccc3C)sc2n1 [Example 212, N,N-Dimethyl-4-[5-methyl-2-(3-methyl-pyridin-2-ylamino)-thiazolo[5,4-d]pyrimidin-7-ylamino]-benzenesulfonamide]	≥ 6670 nM	≥ 6670 nM
Cc1cccc(C)c1Nc1nc2c(Nc3ccc(C#N)c(C(F)(F)F)c3)ncnc2s1 [Example 149, 4-[2-(2,6-Dimethyl-phenylamino)-thiazolo[5,4-d]pyrimidin-7-ylamino]-2-trifluoromethyl-benzonitrile]	737 nM	257 nM
Cc1nc(Nc2cccnc2)c2nc(Nc3c(Cl)cccc3Cl)sc2n1 [Example 166, N^2-(2,6-Dichloro-phenyl)-5-methyl-N^7-pyridin-3-yl-thiazolo[5,4-d]pyrimidine-2,7-diamine]	> 6670 nM	> 6670 nM
FC(F)(F)c1ccc(Nc2ncnc3sc(Nc4ccccc4)nc23)cn1 [Example 21, N^2-Phenyl-N^7-(6-trifluoromethyl-pyridin-3-yl)-thiazolo[5,4-d]pyrimidine-2,7-diamine]	557 nM	299 nM
Cc1cccc(C)c1Nc1nc2c(Nc3ccc(S(=O)(=O)N4CCN(C)CC4)cc3)ncnc2s1 [Example 110, N^2-(2,6-Dimethyl-phenyl)-N^7-[4-(4-methyl-piperazine-1-sulfonyl)-phenyl]-thiazolo[5,4-d]pyrimidine-2,7-diamine]	26 nM	20 nM
Cc1nc(Nc2ccc(C(F)(F)F)cc2)c2nc(N(C)c3c(Cl)cccc3Cl)sc2n1 [Example 23, N^2-(2,6-Dichloro-phenyl)-5,N^2-dimethyl-N^7-(4-trifluoromethyl-phenyl)-thiazolo[5,4-d]pyrimidine-2,7-diamine]	1140 nM	319 nM
CS(=O)(=O)c1ccc(Nc2nc(N3CCCCC3)nc3sc(Nc4c(Cl)cccc4Cl)nc23)cc1 [Example 129, N^2-(2,6-Dichloro-phenyl)-N^7-(4-methanesulfonyl-phenyl)-5-piperidin-1-yl-thiazolo[5,4-d]pyrimidine-2,7-diamine]	149 nM	23 nM
O=S(=O)(c1ccc(Nc2ncnc3sc(Nc4ccccc4Cl)nc23)cc1)N1CCOCC1 [Example 216, N^2-(2-Chlorophenyl)-N^7-[4-(morpholin-4-ylsulfonyl)phenyl][1,3]thiazolo[5,4-d]pyrimidine-2,7-diamine]	24 nM	15 nM
OCC1CN(c2nc(Nc3ccc(C(F)(F)F)cc3)c3nc(Nc4c(Cl)cccc4Cl)sc3n2)CCO1 (racemic) [Example 146, (racemic)-{4-[2-(2,6-Dichloro-phenylamino)-7-(4-trifluoromethyl-phenylamino)-thiazolo[5,4-d]pyrimidin-5-yl]-morpholin-2-yl}-methanol]	646 nM	319 nM

More lines, now with the values ahead:

IC50 [1]	IC50 [2]	SMILES
> 20000 nM	5320 nM	Cc1nc(Nc2cccnc2)c2nc(Nc3c(C)cccc3C)sc2n1 [Example 171, N^2-(2,6-Dimethyl-phenyl)-5-methyl-N^7-pyridin-3-yl-thiazolo[5,4-d]pyrimidine-2,7-diamine]
1 nM	2 nM	Cc1nc(Nc2ccc(S(=O)(=O)C(F)(F)F)cc2)c2nc(Nc3c(Cl)cccc3Cl)sc2n1 [Example 77, N^2-(2,6-Dichloro-phenyl)-5-methyl-N^7-(4-trifluoromethanesulfonyl-phenyl)-thiazolo[5,4-d]pyrimidine-2,7-diamine]
567 nM	135 nM	CS(=O)(=O)c1ccc(Nc2ncnc3sc(Nc4ccccc4C(F)(F)F)nc23)cc1 [Example 226, N^7-[4-(Methylsulfonyl)phenyl]-N^2-[2-(trifluoromethyl)phenyl][1,3]thiazolo[5,4-d]pyrimidine-2,7-diamine]
64 nM	15 nM	CSc1ccc(Nc2ncnc3sc(Nc4c(C)cccc4C)nc23)cc1 [Example 120, N^2-(2,6-Dimethyl-phenyl)-N^7-(4-methylsulfanyl-phenyl)-thiazolo[5,4-d]pyrimidine-2,7-diamine]
55 nM	24 nM	Cc1ccccc1Nc1nc2c(Nc3ccc(C(F)(F)F)nc3)ncnc2s1 [Example 218, N^2-(2-Methylphenyl)-N^7-[6-(trifluoromethyl)pyridin-3-yl][1,3]thiazolo[5,4-d]pyrimidine-2,7-diamine]
6510 nM	626 nM	Cc1nc(Nc2ccc(N(C)S(C)(=O)=O)cc2)c2nc(Nc3c(C)cccc3C)sc2n1 [Example 164, N-{4-[2-(2,6-Dimethyl-phenylamino)-5-methyl-thiazolo[5,4-d]pyrimidin-7-ylamino]-phenyl}-N-methyl-methanesulfonamide]
44 nM	4 nM	Cc1cccc(C)c1Nc1nc2c(Nc3ccc(S(C)(=O)=O)cc3)ncnc2s1 [Example 115, N^2-(2,6-Dimethyl-phenyl)-N^7-(4-methanesulfonyl-phenyl)-thiazolo[5,4-d]pyrimidine-2,7-diamine]
> 6670 nM	> 6670 nM	Cc1cccc(C)c1Nc1nc2c(Nc3ccccc3C(F)(F)F)ncnc2s1 [Example 36, N^2-(2,6-Dimethyl-phenyl)-N^7-(2-trifluoromethyl-phenyl)-thiazolo[5,4-d]pyrimidine-2,7-diamine]
28 nM	18 nM	O=S(=O)(c1ccc(Nc2ncnc3sc(Nc4ccccc4Cl)nc23)cc1)N1CCCC1 [Example 109, N^2-(2-Chloro-phenyl)-N^7-[4-(pyrrolidine-1-sulfonyl)-phenyl]-thiazolo[5,4-d]pyrimidine-2,7-diamine]
7 nM	15 nM	Cc1nc(Nc2ccc(S(=O)(=O)C(F)(F)F)cc2)c2nc(Nc3c(C)cccc3C)sc2n1 [Example 90, N^2-(2,6-Dimethyl-phenyl)-5-methyl-N^7-(4-trifluoromethanesulfonyl-phenyl)-thiazolo[5,4-d]pyrimidine-2,7-diamine]
269 nM	162 nM	Cc1nc(Nc2ccc(C(C)(C)C)cc2)c2nc(Nc3c(C)noc3C)sc2n1 [Example 209, N^7-(4-tert-Butyl-phenyl)-N^2-(3,5-dimethyl-isoxazol-4-yl)-5-methyl-thiazolo[5,4-d]pyrimidine-2,7-diamine]
280 nM	78 nM	Cc1nc(Nc2ccc3c(c2)N(C)CCC3)c2nc(Nc3c(Cl)cccc3Cl)sc2n1 [Example 139, N^2-(2,6-Dichloro-phenyl)-5-methyl-N^7-(1-methyl-1,2,3,4-tetrahydro-quinolin-7-yl)-thiazolo[5,4-d]pyrimidine-2,7-diamine]
> 2220 nM	1460 nM	Cc1cc(C(F)(F)F)ccc1Nc1ncnc2sc(Nc3c(C)cccc3C)nc12 [Example 159, N^2-(2,6-Dimethyl-phenyl)-N^7-(2-methyl-4-trifluoromethyl-phenyl)-thiazolo[5,4-d]pyrimidine-2,7-diamine]
35 nM	19 nM	Cc1nc(Nc2ccc(C(F)(F)F)c(Cl)c2)c2nc(Nc3c(C)cccc3C)sc2n1 [Example 247, N^7-(3-Chloro-4-trifluoromethyl-phenyl)-N^2-(2,6-dimethyl-phenyl)-5-methyl-thiazolo[5,4-d]pyrimidine-2,7-diamine]
